Experimental findings from patent US9994570B2, “Bridged diazepane orexin receptor antagonists” (MERCK SHARP & DOHME CORP., priority 2014, dated 2018) are described below.

As usually defined, the IC50 is the concentration at which inhibition is half-maximal. Read a low IC50 as greater potency.

Experiment [1] deals with T1, human orexin-2 receptor (Homo sapiens, UniProt O43614).
T1 construct: expressed in transfected cells; host or cells: CHO cells (grown under G418 selection)
T1 sequence (O43614 1-444): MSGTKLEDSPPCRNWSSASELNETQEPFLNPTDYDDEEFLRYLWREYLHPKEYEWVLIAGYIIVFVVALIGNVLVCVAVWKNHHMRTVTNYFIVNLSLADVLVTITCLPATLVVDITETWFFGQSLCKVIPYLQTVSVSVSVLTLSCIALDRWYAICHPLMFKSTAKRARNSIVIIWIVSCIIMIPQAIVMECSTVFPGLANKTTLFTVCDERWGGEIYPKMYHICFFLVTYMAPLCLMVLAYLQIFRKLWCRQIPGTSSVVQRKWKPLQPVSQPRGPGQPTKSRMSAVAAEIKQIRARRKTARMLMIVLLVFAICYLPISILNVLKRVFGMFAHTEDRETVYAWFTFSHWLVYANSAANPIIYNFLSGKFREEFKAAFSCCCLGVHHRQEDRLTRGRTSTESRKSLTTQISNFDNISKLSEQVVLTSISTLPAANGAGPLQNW
As to the kind of experiment: FLIPR Ca2+ flux assay, OX2R. It is filed as cell-based. The following applies: for IC50: CHO cells expressing the human orexin-2 receptor, agonist 70 pM Ala-6,12 orexin-A; for Fold Selective: OX1R FLIPR / OX2R FLIPR. Here is the method:
(§1) The utility of the compounds in accordance with the present invention as orexin receptor OX1R and/or OX2R antagonists may be readily determined without undue experimentation by methodology well known in the art, including the “FLIPR Ca^2+ Flux Assay” (Okumura et al., Biochem. Biophys. Res. Comm. 280:976-981, 2001). In a typical experiment the OX1 and OX2 receptor antagonistic activity of the compounds of the present invention was determined in accordance with the following experimental method. For intracellular calcium measurements, Chinese hamster ovary (CHO) cells expressing the rat orexin-1 receptor or the human orexin-2 receptor, are grown in Iscove's modified DMEM containing 2 mM L-glutamine, […], 1% hypoxanthine-thymidine supplement, 100 U/ml penicillin, 100 μg/ml streptomycin and 10% heat-inactivated fetal calf serum (FCS). The cells are seeded at 20,000 cells/well into Becton-Dickinson black 384-well clear bottom sterile plates coated with poly-D-lysine. All reagents were from GIBCO-Invitrogen Corp. The seeded plates are incubated overnight at 37° C. and 5% CO2. Ala-6,12 human orexin-A as the agonist is prepared as a 1 mM stock solution in 1% bovine serum albumin (BSA) and diluted in assay buffer (HBSS containing 20 mM HEPES, 0.1% BSA and 2.5 mM probenecid, pH7.4) for use in the assay at a final concentration of 70 pM. Test compounds are prepared as 10 mM stock solution in DMSO, then diluted in 384-well plates, first in DMSO, then assay buffer. On the day of the assay, cells are washed 3 times with 100 μl assay buffer and then incubated for 60 min (37° C., 5% CO2) in 60 μl assay buffer containing 1 μM Fluo-4AM ester, 0.02% pluronic acid, and 1% BSA. The dye loading solution is then aspirated and cells are washed 3 times with 100 μl assay buffer. 30 μl of that same buffer is left in each well. Within the Fluorescent Imaging Plate Reader (FLIPR, Molecular Devices), test compounds are added to the plate in a volume of 25 μl, incubated for 5 min and finally 25 μl of agonist is added. Fluorescence is measured for each well at 1 second intervals for 5 minutes and the height of each fluorescence peak is compared to the height of the fluorescence peak induced by 70 pM Ala-6,12 orexin-A with buffer in place of antagonist. For each antagonist, IC50 value (the concentration of compound needed to inhibit 50% of the agonist response) is determined. Alternatively, compound potency can be assessed by a radioligand binding assay (described in Bergman et. al. Bioorg. Med. Chem. Lett. 2008, 18, 1425-1430) in which the inhibition constant (Ki) is determined in membranes prepared from CHO cells expressing either the OX1 or OX2 receptor. The intrinsic orexin receptor antagonist activity of a compound which may be used in the present invention may be determined by these assays.
For orientation: Calcium flux is commonly read through the fluorescence of an indicator in the cells.

In experiment [2] the target is T2, rat orexin-1 receptor (Rattus norvegicus, UniProt P56718).
T2 construct: expressed in transfected cells; host or cells: CHO cells (grown under G418 selection)
T2 sequence (P56718 1-416): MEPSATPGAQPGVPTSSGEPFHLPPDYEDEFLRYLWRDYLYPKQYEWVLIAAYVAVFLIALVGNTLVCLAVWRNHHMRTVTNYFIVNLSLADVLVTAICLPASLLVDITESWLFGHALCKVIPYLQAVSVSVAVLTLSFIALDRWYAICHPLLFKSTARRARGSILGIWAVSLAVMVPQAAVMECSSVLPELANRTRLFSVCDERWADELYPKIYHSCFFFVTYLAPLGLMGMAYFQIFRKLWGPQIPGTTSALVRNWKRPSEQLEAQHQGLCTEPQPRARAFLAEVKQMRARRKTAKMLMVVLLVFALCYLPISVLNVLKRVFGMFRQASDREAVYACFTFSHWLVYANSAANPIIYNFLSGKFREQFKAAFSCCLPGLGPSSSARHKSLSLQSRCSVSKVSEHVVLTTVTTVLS
The experiment can be described thus: FLIPR Ca2+ flux assay, OX1R. It is filed as cell-based. The following applies: CHO cells expressing the rat orexin-1 receptor; agonist 70 pM Ala-6,12 orexin-A. The procedure:
as §1

In the case of `Cc1cc(C)nc(N2CC3CC2CN(C(=O)c2ccccc2OC(F)(F)F)C3)n1` (stereo not drawn) [Example 15, 6-(4,6-dimethylpyrimidin-2-yl)-3-{[2-(trifluoromethoxy)-phenyl]carbonyl}-3,6-diazabicyclo[3.2.1]octane], in experiment [1], the IC50 is 30 nM and the “Fold Selective” value amounted to 51. The IC50 in experiment [2] is 1530 nM.
For `Cc1cc(C#N)nc(N2CC3CC2CN(C(=O)c2cccnc2C2CC2)C3)n1` (stereo not drawn) [Example 5, 2-(3-(2-cyclopropylnicotinoyl)-3,6-diazabicyclo[3.2.1]octan-6-yl)-6-methylpyrimidine-4-carbonitrile], in experiment [1], the IC50 was 81 nM and the “Fold Selective” value is on record as greater than 123. For the same compound, the IC50 in experiment [2] was greater than 10000 nM.
Consider `Cc1cc(C)nc(N2CC3CC2CN(C(=O)c2ccccc2CC(F)F)C3)n1` (stereo not drawn) [Example 36, 3-{[2-(2,2-difluoroethyl)phenyl]carbonyl}-6-(4,6-dimethylpyrimidin-2-yl)-3,6-diazabicyclo[3.2.1]octane], for which the half-maximal inhibitory concentration (IC50) in experiment [1] is 15 nM; in experiment [2] it was 2090 nM. Further, the “Fold Selective” value in experiment [1] came out at 139.
Consider `COc1ccc(C(=O)N2CC3CC(C2)N(c2nc(C)cc(C)n2)C3)c(C2CC2)n1` (stereo not drawn) [Example 13, 3-[(2-cyclopropyl-6-methoxypyridin-3-yl)carbonyl]-6-(4,6-dimethylpyrimidin-2-yl)-3,6-diazabicyclo[3.2.1]octane], for which, in experiment [1], the half-inhibitory concentration (IC50) turned out to be 41 nM and the “Fold Selective” value is reported as 87. In addition, the half-maximal inhibitory concentration (IC50) in experiment [2] turned out to be 3550 nM.
As for `Cc1cc(C)nc(N2CC3CC2CN(C(=O)c2nccnc2OCC(F)(F)F)C3)n1` (stereo not drawn) [Example 50, 6-(4,6-dimethylpyrimidin-2-yl)-3-{[3-(2,2,2-trifluoroethoxy)pyrazin-2-yl]carbonyl}-3,6-diazabicyclo[3.2.1]octane], the results for the half-maximal inhibitory concentration (IC50) in experiment [1] and in experiment [2] were 36 nM and greater than 10000 nM, respectively. Moreover, the “Fold Selective” value in experiment [1] is greater than 278.
Consider `CSc1ccccc1C(=O)N1CC2CC(C1)N(c1nc(C)cc(C)n1)C2` (stereo not drawn) [Example 17, 6-(4,6-dimethylpyrimidin-2-yl)-3-{[2-(methylsulfanyl)-phenyl]carbonyl}-3,6-diazabicyclo[3.2.1]octane], for which, in experiment [1], the IC50 came to 27 nM and the “Fold Selective” value is reported as 92. The half-inhibitory concentration (IC50) in experiment [2] turned out to be 2470 nM.
For `Cc1cc(C)nc(N2CC3CC2CN(C(=O)c2cccnc2OCC2CCC2)C3)n1` (stereo not drawn) [Example 42, 3-{[2-(cyclobutylmethoxy)pyridin-3-yl]carbonyl}-6-(4,6-dimethylpyrimidin-2-yl)-3,6-diazabicyclo[3.2.1]octane], the IC50 was 15 nM in experiment [1] and 628 nM in experiment [2]. In addition, the “Fold Selective” value in experiment [1] was 42.
For the compound `Cc1cc(C)nc(N2CC3CC2CN(C(=O)c2cccnc2CC(F)(F)F)C3)n1` (stereo not drawn) [Example 32, 6-(4,6-dimethylpyrimidin-2-yl)-3-{[2-(2,2,2-trifluoroethyl)pyridin-3-yl]carbonyl}-3,6-diazabicyclo[3.2.1]octane], in experiment [1], the concentration for half-maximal inhibition (IC50) was found to be 58 nM and the “Fold Selective” value was greater than 172. Further, in experiment [2], the half-maximal inhibitory concentration (IC50) is greater than 10000 nM.
For the compound `COc1ccc(C(=O)N2CC3CC(C2)N(c2nc(C)cc(C)n2)C3)c(-n2nccn2)n1` (stereo not drawn) [Example 30, 6-(4,6-dimethylpyrimidin-2-yl)-3-{[6-methoxy-2-(2H-1,2,3-triazol-2-yl)pyridin-3-yl]carbonyl}-3,6-diazabicyclo[3.2.1]octane], in experiment [1], the IC50 was determined as 117 nM and the “Fold Selective” value is greater than 85. The compound also came in with an IC50 in experiment [2] greater than 10000 nM.
`Cc1cc(C)nc(N2CC3CC2CN(C(=O)c2ccccc2C2(C#N)CC2)C3)n1` (stereo not drawn) [Example 29, 1-(2-{[6-(4,6-dimethylpyrimidin-2-yl)-3,6-diazabicyclo[3.2.1]oct-3-yl]carbonyl}-phenyl)-cyclopropanecarbonitrile]: the figures for the IC50 in experiment [1] and in experiment [2] were 13 nM and 1120 nM, respectively. In addition, the “Fold Selective” value in experiment [1] came to 86.
For the compound `Cc1cc(C)nc(N2CC3CC2CN(C(=O)c2ccccc2CS(C)(=O)=O)C3)n1` (stereo not drawn) [Example 28, 6-(4,6-dimethylpyrimidin-2-yl)-3-({2-[(methylsulfonyl)methyl]phenyl}carbonyl)-3,6-diazabicyclo[3.2.1]octane], in experiment [1], the IC50 is 47 nM and the “Fold Selective” value is recorded as greater than 213. The 50% inhibitory concentration (IC50) in experiment [2] was greater than 10000 nM.
`Cc1cc(C)nc(N2CC3CC2CN(C(=O)c2cccnc2-c2noc(C)n2)C3)n1` (stereo not drawn) [Example 23, 6-(4,6-dimethylpyrimidin-2-yl)-3-{[2-(5-methyl-1,2,4-oxadiazol-3-yl)pyridin-3-yl]carbonyl}-3,6-diazabicyclo[3.2.1]octane]: in experiment [1], the IC50 is 103 nM and the “Fold Selective” value is recorded as greater than 97. In experiment [2], this compound registered a half-inhibitory concentration (IC50) greater than 10000 nM.
On to `Cc1cc(C)nc(N2CC3CC2CN(C(=O)c2nccnc2OCC(F)(F)C(F)F)C3)n1` (stereo not drawn) [Example 51, (6-(4,6-dimethylpyrimidin-2-yl)-3,6-diazabicyclo[3.2.1]octan-3-yl)(3-(2,2,3,3-tetrafluoropropoxy)pyrazin-2-yl)methanone], for which the values for the IC50 in experiment [1] and in experiment [2] were 24 nM and 2690 nM, respectively. In addition, the “Fold Selective” value in experiment [1] came out at 112.
In the case of `CO[C@@H]1CCN(c2ncccc2C(=O)N2CC3CC(C2)N(c2nc(C)cc(C)n2)C3)C1` (stereo partly drawn) [Example 46, (6-(4,6-dimethylpyrimidin-2-yl)-3,6-diazabicyclo[3.2.1]octan-3-yl)(2-((R)-3-methoxypyrrolidin-1-yl)pyridin-3-yl)methanone], in experiment [1], the IC50 is 90 nM and the “Fold Selective” value is listed as greater than 111. For the same compound, in experiment [2], the IC50 is greater than 10000 nM.
`Cc1cc(C)nc(N2CC3CC2CN(C(=O)c2ccccc2C2CC2)C3)n1` (stereo not drawn) [Example 11, 3-[(2-cyclopropylphenyl)-carbonyl]-6-(4,6-dimethylpyrimidin-2-yl)-3,6-diazabicyclo[3.2.1]octane]: in experiment [1], the half-maximal inhibitory concentration (IC50) turned out to be 13 nM and the “Fold Selective” value amounted to 47. Further, in experiment [2], the 50% inhibitory concentration (IC50) is 613 nM.
Take `Cc1cc(C)nc(N2CC3CC2CN(C(=O)c2cccnc2OCCC(F)(F)F)C3)n1` (stereo not drawn) [Example 44, 6-(4,6-dimethylpyrimidin-2-yl)-3-{[2-(3,3,3-trifluoropropoxy)pyridin-3-yl]carbonyl}-3,6-diazabicyclo[3.2.1]octane]: in experiment [1], the IC50 was determined as 21 nM and the “Fold Selective” value is listed as 44. Further, the IC50 in experiment [2] turned out to be 932 nM.
On to `Cc1cc(C)nc(N2CC3CC2CN(C(=O)c2ccccc2OCC(F)F)C3)n1` (stereo not drawn) [Example 37, 3-{[2-(2,2-difluoroethoxy)-phenyl]carbonyl}-6-(4,6-dimethylpyrimidin-2-yl)-3,6-diazabicyclo[3.2.1]octane], for which, in experiment [1], the IC50 amounted to 14 nM and the “Fold Selective” value was 61. In addition, the half-inhibitory concentration (IC50) in experiment [2] turned out to be 851 nM.
